Assay results as given in publication PMC6757289, “Design and Characterization of SGK3-PROTAC1, an Isoform Specific SGK3 Kinase PROTAC Degrader” (ACS Chemical Biology, 2019).

Columns and labels:
Type in all cases: cell-based
CAMA-1 cells = assay: Cell growth (confluency, Incucyte S3); conditions: for growth in combination with GDC0941 or AZD5363: 1 μM GDC0941 or AZD5363, SGK3-PROTAC1/cisSGK3-PROTAC1 0.3 μM, 14H 3 μM
Method: (§1) Figure 6 SGK3-PROTAC1-mediated degradation of SGK3 further inhibiting the growth of cancer cell lines treated with PI3K-Akt pathway inhibitors. CAMA-1 (A, C) and ZR-75-1 (B, D) were treated with compounds as indicated either as monotherapy or in combination, and confluency was measured on the Incucyte S3 every 4 h for up to 4 weeks.
(§2) For growth assays, ZR-75-1 cells were seeded in 96-well plates at a density of 6000 cells/well and left to adhere overnight. Cells were then treated with compounds as described in the figure legends and imaged every 4 h on the Incucyte S3 (Essen Bioscience) for up to 4 weeks to give a measure of cell confluency. Media were refreshed every 4–5 days.
(§3) Supplementary Figure S3. SGK3-PROTAC compounds have no effect on cell growth. CAMA-1 and ZR-75-1
(§4) confluency was m easured every 4 h on Incucyte S3.
(§5) (1 picture or pasted object on this page, not shown here)

ZR-75-1 cells = assay: Cell growth (confluency, Incucyte S3); conditions: for growth in combination with GDC0941 or AZD5363: 1 μM GDC0941 or AZD5363, SGK3-PROTAC1/cisSGK3-PROTAC1 0.3 μM, 14H 3 μM
Method: as §1, §2, §3, §4, §5

SGK3 = biological target: T1, SGK3 (Homo sapiens, UniProt Q96BR1); assay: TMT global proteomic analysis of HEK293 cells; parameters: global proteomic analysis of HEK293 cells treated in the presence or absence of 0.3 μM SGK3-PROTAC1; endogenous in cells; host or cells: HEK293; conditions: HEK293, 0.3 μM, 8 h
T1 sequence (Q96BR1 1-496): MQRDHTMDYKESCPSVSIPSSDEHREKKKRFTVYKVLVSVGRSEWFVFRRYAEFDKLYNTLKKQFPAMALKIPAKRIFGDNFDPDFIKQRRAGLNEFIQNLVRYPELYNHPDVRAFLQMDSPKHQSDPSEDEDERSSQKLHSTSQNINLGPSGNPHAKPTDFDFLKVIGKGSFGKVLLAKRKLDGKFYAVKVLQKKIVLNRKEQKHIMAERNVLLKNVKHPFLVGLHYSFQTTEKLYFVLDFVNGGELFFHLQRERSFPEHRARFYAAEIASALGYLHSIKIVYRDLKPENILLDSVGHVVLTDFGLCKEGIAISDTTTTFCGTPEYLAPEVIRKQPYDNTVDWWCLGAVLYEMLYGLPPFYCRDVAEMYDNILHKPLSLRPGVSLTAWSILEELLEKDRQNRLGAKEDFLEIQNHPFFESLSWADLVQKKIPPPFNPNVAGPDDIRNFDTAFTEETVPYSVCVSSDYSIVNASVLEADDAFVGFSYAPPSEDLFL
Method: To establish the specificity of SGK3-PROTAC1 employing an unbiased approach, we performed quantitative Tandem–Mass–Tag (TMT)-labeled global proteomic analysis of HEK293 cells treated in the presence or absence of 0.3 μM SGK3-PROTAC1 compared to either 0.3 μM cisSGK3-PROTAC1 or DMSO for 8 h. Experiments were undertaken in triplicate, and analysis in Proteome Discoverer v2.2 using the Mascot search engine allowed relative quantification of 8766 proteins.
Figure 4 TMT proteomic analysis of HEK293 cells treated with SGK3-PROTAC1. (A) Cells were treated with DMSO (control), SGK3-PROTAC1 (0.3 μM), or cisSGK3-PROTAC1 (0.3 μM) for 8 h and lysed. Lysates were subjected to immunoblot analysis with the indicated antibodies. (B) Lysates were examined by quantitative proteomics. […]
Cell culture and proteomic sample preparation
Cells pellets were lysed with 2 ml of lysis buffer (8 M Urea, 50 mM Ammonium bicarbonate containing protease inhibitor and phosphatase inhibitor). The sample were left on ice for 15 min and were then sonicated for 5 min in ice-cold water bath under high intensity with 30 sec on and off. After sonication, benzonase® endonuclease (Merck Millipore) with the volume ratio of 1: 100 were added into the lysate to degrade DNA and RNA. The lysate were then centrifuged at 12,000 rpm for 15 min at 4 °C, and supernatants were transferred into new eppendorf tubes. The protein concentration were measured with BCA assay (Pierce™ BCA Protein Assay Kit, Thermo). The lysate from each sample was reduced with 5 mM DTT at 45 °C for 30 min. Lysates were briefly centrifuged and were cool down to room temperature before alkylation in the dark with 10 mM iodoacetamide at room temperature. The alkylation was then quenched by the addition of 5 mM DTT. Samples were first digested by Lys-C with the weight ratio of 1:200 (w/w) for 4 h at 30 °c. Then, sample were diluted with 50 mM ammonium bicarbonate to 1.5 M Urea concentration. Samples were then digested with trypsin (Pierce trypsin, Thermo) at an enzyme to protein ratio of 1:50 (w/w) at room temperature with gentle shaking for overnight.
The digest was stopped by the addition of 1% TFA (v/v), centrifuged at 10,000 g for 10 min at room temperature.
The supernatant were desalted on 200 mg SepPak tC18 cartridge (Waters). Desalted peptides were dried by vacuum centrifugation using Speedvac (Thermo).
TMT labelling and Basic C18 reverse phase (bRP) chromatography fractionation Each sample (200 μg of peptides each) was re-suspended in 100 μL of 100 mM TEAB buffer. The TMT labelling reagents were equilibrated to room temperature and 41 μL anhydrous acetonitrile was added to each reagent channel and softly vortexed for 10 min. Peptides were transferred to the corresponding TMT channels and incubated for 1 h at room temperature. The reaction was quenched with 8 μL of 5% hydroxylamine. To ensure complete labelling, 1 µg of labelled samples from each channel were analyzed by LC-MS/MS prior to mix. After evaluation, the complete TMT labelled 9 samples were then combined, acidified and dried. Sep-Pak desalting was then performed and the elution was dried to completeness.
Ultimate 3000 high-pressure liquid chromatography (HPLC) system (Dionex) were used for basic C18 reverse phase chromatography fractionation operating at 569 µL/min with two buffers: buffer A (10 mM ammonium formate, pH 10) and buffer B (80% ACN, 10 mM ammonium formate, pH 10). The desalted mixture of TMT-labelled peptides were resuspended in 200 µL of buffer A (10 mM ammonium formate, pH10) and separated on a C18 reverse phase column (4.6 × 250 mm, 3.5 μm, Waters) with a gradient from 3% B to 12.5 % B in 10 min, […]
min, 100% for 5 min, ramping to 3% B in 2.5 min and then 3% for 10 min. A total of 90 fractions (1 min per fraction) were collected before further concatenation into 30 final fractions. Each fraction was then dried and desalted over a C18 StageTip prior to analysis by mass spectrometry. […]

Row | Structure (SMILES) | growth, compound alone (CAMA-1 cells; CAMA-1) | suppression of growth compared with 14H (3 μM) (CAMA-1 cells; CAMA-1, 0.3 μM, with AZD5363 1 μM) | inhibition of cell growth compared with 14H (3 μM) (CAMA-1 cells; CAMA-1, 0.3 μM, with GDC0941 1 μM) | growth in combination with GDC0941 or AZD5363 (CAMA-1 cells; CAMA-1) | growth, compound alone (ZR-75-1 cells; ZR-75-1) | suppression of growth compared with 14H (3 μM) (ZR-75-1 cells; ZR-75-1, 0.3 μM, with AZD5363 1 μM) | inhibition of cell growth compared with 14H (3 μM) (ZR-75-1 cells; ZR-75-1, 0.3 μM, with GDC0941 1 μM) | growth in combination with GDC0941 or AZD5363 (ZR-75-1 cells; ZR-75-1) | Abundances (Grouped) (SGK3) | Ratio: (SGK3-PROTAC1) / (cSGK3-PROTAC1) (SGK3) | Ratio: (compound) / (DMSO) (SGK3) | selectivity in global proteome (8766 proteins quantified) (SGK3; vs cisSGK3-PROTAC1 or DMSO)
1 | Cc1ccc(F)c(S(=O)(=O)Nc2ccc(-c3nc(OC[C@H]4CN(CCCCCCOCCOCCOCC(=O)N[C@H](C(=O)N5C[C@H](O)C[C@H]5C(=O)NCc5ccc(-c6scnc6C)cc5)C(C)(C)C)CCO4)c4cn[nH]c4n3)cc2)c1 [SGK3-PROTAC1] | no effect on growth | to a similar extent | to a greater extent | further reduced the growth | no effect on growth | to a similar extent | to a greater extent | further reduced the growth | 60.6 | 0.526 | 0.484 | only SGK3 expression being significantly reduced
2 | Cc1ccc(F)c(S(=O)(=O)Nc2ccc(-c3nc(OC[C@H]4CN(CCCCCCOCCOCCOCC(=O)N[C@H](C(=O)N5C[C@@H](O)C[C@H]5C(=O)NCc5ccc(-c6scnc6C)cc5)C(C)(C)C)CCO4)c4cn[nH]c4n3)cc2)c1 [cisSGK3-PROTAC1] | – | – | – | minimal effect | – | – | – | minimal effect | 115.2 | – | 0.949 | –
